From patent publication US20250161396A1, “COMPOSITION AND METHOD FOR IMPROVING LIPID METABOLISM FUNCTION OF SUBJECT” (NANJING NUTRABUILDING BIO-TECH CO., LTD., priority 2022, published 2025) come the findings set out here.

Molecules are shown by their SMILES.

Format in all cases: in vivo
Experiment [1] has as its system high fat diet (HFD) mice. Briefly: Body fat mass of high fat diet mice after 16 weeks of treatment. As for the experimental part: (§1) Mice were divided into five groups: one group was normal diet mice as ND control group; one group of high fat diet (HFD) mice were gavaged with no-active-ingredients water as HFD control group, one group of HFD mice were treated with BAIBA (65 mg/kg/day) alone by gavage as HFD+BAIBA group, one group of HFD mice were treated with GP (5.2 mg/kg/day) alone by gavage as HFD+GP group, and one group of HFD mice were treated with BAIBA (65 mg/kg/day) and GP (5.2 mg/kg/day) combination by gavage as HFD+BAIBA+GP group, all for 16 weeks.
Adipose tissue was collected, fixed with 10% formalin, embedded in paraffin, and dehydrated by graded alcohol. Tissue sections with a thickness of 5 μm were prepared, stained with hematoxylin-eosin (H&E) and observed under an optical microscope with a magnification of 200 times. The body fat mass of each group of mice was measured and recorded.

Experiment [2] deals with high fat diet (HFD) mice. Briefly: Serum leptin level by ELISA kit. To be noted: after 16 weeks of gavage. As to the method:
as §1
The serum of mice was centrifuged, and the level of leptin in serum was determined by ELISA kit. According to the concentration value and light absorption value of leptin, the logarithmic value was taken as a standard curve, and the concentration value of leptin was converted according to the standard curve.
(An ELISA detects its analyte on a solid surface through an enzyme-linked reagent.)

For experiment [3], the system named is high fat diet (HFD) mice. Nature of the experiment: Insulin tolerance test (ITT). To be noted: 8th week. As to the method: as §1
(§2) At the 8th week after the initial experiment, oral glucose tolerance test (OGTT) and insulin tolerance test (ITT) were performed on mice. OGTT is as follows: Blood from tail tip of mice was taken to detect blood glucose, and glucose (1.5 g/kg) was given by gavage after overnight fasting, and blood glucose was monitored with a blood glucose meter before administration and 15, 30, 60, 90 and 120 minutes after administration. ITT is as follows: Insulin (0.75 U/kg) was given by intraperitoneal injection on an empty stomach, and blood glucose was monitored with a blood glucose meter before administration and 15, 30, 60, 90 and 120 minutes after administration.
As shown in Table 2 and FIG. 3B, after 15 minutes, the blood glucose level of mice in HFD control group decreased greatly, and the blood glucose level before and after the end of insulin half-life was higher than that in other groups. […] It can be seen that the combination of BAIBA and GP can reduce the insulin resistance of mice, that is, improve the insulin sensitivity.

The subject of experiment [4] is high fat diet (HFD) mice. Nature of the experiment: Serum total cholesterol (TC) level by commercial kit. The note with it: after 16 weeks of gavage. As for the experimental part:
as §1
(§3) After the mice were killed, the serum was extracted by centrifugation, and the levels of triglyceride (TG) and total cholesterol (TC) in mice were measured by using commercial kits according to the instructions and recorded.

Experiment [5] has as its system high fat diet (HFD) mice. Nature of the experiment: Oral glucose tolerance test (OGTT). The note with it: 8th week. As to the method: as §1, §2
The test system of experiment [6] is high fat diet (HFD) mice. Nature of the experiment: Serum triglyceride (TG) level by commercial kit. To be noted: after 16 weeks of gavage. As for the experimental part:
as §1, §3

Experiment [7] deals with high fat diet (HFD) mice. Briefly: Body weight of high fat diet mice after 16 weeks of treatment. As for the experimental part: as §1
At the beginning of treatment (baseline), the body weights of the five groups of mice were the same.

Setting [8] is: gavage, BAIBA 65 mg/kg/day and/or GP 5.2 mg/kg/day, after 16 weeks.
Where [9] appears, read: versus HFD control, after 16 weeks of gavage.

As to `CC(CN)C(=O)O` (stereo not drawn) [BAIBA, β-aminoisobutyric acid], the body fat mass in experiment [1] (setting [8]) is 5.38 g. In experiment [1] (setting [9]), the “body fat mass reduced by” value was determined as 13.78%. Further, in experiment [2], the leptin level is 278.12 pg/mL. In addition, the “blood glucose level in ITT, 15 min” value in experiment [3] (15 min after insulin 0.75 U/kg intraperitoneal) is listed as 105.23 mg/dL. The “blood glucose level in ITT, 30 min” value in experiment [3] (30 min after insulin 0.75 U/kg intraperitoneal) was 101.45 mg/dL. In experiment [3] (60 min after insulin 0.75 U/kg intraperitoneal), the “blood glucose level in ITT, 60 min” value is given as 90.45 mg/dL. Besides, the “blood glucose level in ITT, 90 min” value in experiment [3] (90 min after insulin 0.75 U/kg intraperitoneal) is reported as 95.24 mg/dL. Also, in experiment [3] (120 min after insulin 0.75 U/kg intraperitoneal), the “blood glucose level in ITT, 120 min” value is reported as 92.56 mg/dL. The “blood glucose level in ITT compared with other groups, in words” value in experiment [3] (across time points) is “higher than that in HFD control group at each time point”. For the same compound, in experiment [3] (empty stomach, before insulin 0.75 U/kg intraperitoneal), the “blood glucose level in ITT, pre-dose” value is 140.4 mg/dL. Besides, in experiment [4], the “total cholesterol (TC) level” value is recorded as 220.65 mg/dL. For the same compound, the “blood glucose level in OGTT, 15 min” value in experiment [5] (15 min after glucose 1.5 g/kg by gavage) was 281.91 mg/dL. Besides, in experiment [5] (30 min after glucose 1.5 g/kg by gavage), the “blood glucose level in OGTT, 30 min” value stood at 352.74 mg/dL. The “blood glucose level in OGTT, 60 min” value in experiment [5] (60 min after glucose 1.5 g/kg by gavage) was 411.98 mg/dL. Besides, the “blood glucose level in OGTT, 90 min” value in experiment [5] (90 min after glucose 1.5 g/kg by gavage) is 253.21 mg/dL. For the same compound, the “blood glucose level in OGTT, 120 min” value in experiment [5] (120 min after glucose 1.5 g/kg by gavage) came to 192.99 mg/dL. In addition, the “blood glucose level in OGTT compared with other groups, in words” value in experiment [5] (across time points) is on record as “lower than that in HFD control group at each time point”. For the same compound, the “blood glucose level in OGTT, pre-dose” value in experiment [5] (overnight fasting, before glucose 1.5 g/kg by gavage) is listed as 199.85 mg/dL. In experiment [6], the “triglyceride (TG) level” value was 98.45 mg/dL. The body weight in experiment [7] (setting [8]) amounted to 47.8 g. The “body weight reduced by” value in experiment [7] (setting [9]) is on record as 2.84%.
